Data: US20240010684A1, “MASP INHIBITORY COMPOUNDS AND USES THEREOF” (BAYER AKTIENGESELLSCHAFT, priority 2020, published 2024)
*1 amine or outer side, *2 acyl side, *3 side chain or, on linkers, in order; H or OH if unused. Where a SMILES comes first, the peptide text is derived from it. Bridges are numbered along the chain shown (N, C = ends). Triazole bridges read from a SMILES are 1,4-linked. [ ]: non-standard residue; d: D form. X6 = O=C(CCC(=O)[*:1])NCCCOCCOCCOCCCN[*:2]; Oic = O=C(O)[C@@H]1C[C@@H]2CCCC[C@@H]2N1; Dap(N3) = [N-]=[N+]=NC[C@H](N)C(=O)O; tBuAla = CC(C)(C)C[C@H](N)C(=O)O; Pen = CC(C)(S)[C@H](N)C(=O)O; NMeC = CN[C@@H](CS)C(=O)O; Pra = C#CC[C@H](N)C(=O)O; Dab = NCC[C@H](N)C(=O)O; Abu = CC[C@H](N)C(=O)O; Dap = NC[C@H](N)C(=O)O; PEG2 = NCCOCCOCCC(=O)O; Ahx = NCCCCCC(=O)O; Sar = CNCC(=O)O

Tests used:
human MASP1 = human MASP1 (Homo sapiens (Human), UniProt P48740); test: Biochemical human MASP1 assay (FRET substrate); details: Average IC50; recombinant human MASP1; read-out: human MASP1 IC50
Chain of human MASP1 (P48740 other isoform, or with tags, fused parts or gaps): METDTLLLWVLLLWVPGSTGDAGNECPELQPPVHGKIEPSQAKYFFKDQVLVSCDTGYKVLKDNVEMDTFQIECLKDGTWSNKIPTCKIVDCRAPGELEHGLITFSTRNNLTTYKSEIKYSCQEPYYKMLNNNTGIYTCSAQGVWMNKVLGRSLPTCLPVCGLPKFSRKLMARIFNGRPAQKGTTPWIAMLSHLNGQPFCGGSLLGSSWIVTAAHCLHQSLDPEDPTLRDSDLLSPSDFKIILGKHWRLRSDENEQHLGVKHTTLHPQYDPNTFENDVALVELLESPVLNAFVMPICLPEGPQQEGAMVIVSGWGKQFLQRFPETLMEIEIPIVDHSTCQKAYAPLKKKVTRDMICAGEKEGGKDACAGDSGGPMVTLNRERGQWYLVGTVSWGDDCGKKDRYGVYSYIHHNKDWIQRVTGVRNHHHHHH
Excerpt: A truncated cDNA sequence of human MASP1 encoding the fragment corresponding to the amino acids 297-699 with a C-terminal His Tag and N-terminal Ig-kappa secretion signal (SEQ ID No: 2) was subcloned into the mammalian expression vector pcDNA3.1 (Invitrogen).
The MASP1 or MASP2 expression vectors were transfected into the HEK293 (ATCC No. CRL-1573) cell line using Lipofectamine LTX® Reagent (Thermo-Fischer), as described by the manufacturer. The mature form of the recombinant human MASP1 and MASP2 proteases were secreted into the culture medium. The MASP1 and MASP2 proteins were purified from the conditioned media by affinity chromatography on Ni-NTA Superflow resin (Qiagen) as described by the manufacturer.
2.2 Biochemical Human MASP1 Assay
Recombinant human MASP1 enzyme produced in the HEK 293 cells was diluted in the reaction buffer (50 mM HEPES pH 8,0; 100 mM NaCl; 0,01% CHAPS; 0.5 mM Gluthathione) to the concentration of 20 nM and 25 μl was transferred into each single well of 384-well white microtiter plate (Greiner Bio One 781075). 1 μl of the inhibitor compound solution (dissolved in DMSO, at the corresponding concentration) or pure DMSO as a control was added to the same wells. The enzymatic reaction was initiated by addition of 25 μl of 20 μM solution of the FRET substrate ABZ-[…]-Lys (Dnp)-NH2; (ABZ-2-aminobenzoyl; DNP 2,4-dinitrophenyl; custom synthesis by Jerini Peptide Technologies, Berlin) in the reaction buffer. The microtiter plate was incubated for 60-120 min at the temperature of 32 C. The increase of fluorescence intensity was measured in appropriate fluorescence plate reader (e.g. TECAN Ultra) using excitation wavelength of 320 nm and emission wavelength of 420 nm. IC50 values were calculated from percentage of inhibition of human MASP1 activity as a function of test compound concentration.

human MASP2 = human MASP2 (Homo sapiens (Human), UniProt O00187); test: Biochemical human MASP2 assay (FRET substrate); details: Average IC50; recombinant human MASP2; read-out: human MASP2 IC50
Chain of human MASP2 (O00187 other isoform, or with tags, fused parts or gaps): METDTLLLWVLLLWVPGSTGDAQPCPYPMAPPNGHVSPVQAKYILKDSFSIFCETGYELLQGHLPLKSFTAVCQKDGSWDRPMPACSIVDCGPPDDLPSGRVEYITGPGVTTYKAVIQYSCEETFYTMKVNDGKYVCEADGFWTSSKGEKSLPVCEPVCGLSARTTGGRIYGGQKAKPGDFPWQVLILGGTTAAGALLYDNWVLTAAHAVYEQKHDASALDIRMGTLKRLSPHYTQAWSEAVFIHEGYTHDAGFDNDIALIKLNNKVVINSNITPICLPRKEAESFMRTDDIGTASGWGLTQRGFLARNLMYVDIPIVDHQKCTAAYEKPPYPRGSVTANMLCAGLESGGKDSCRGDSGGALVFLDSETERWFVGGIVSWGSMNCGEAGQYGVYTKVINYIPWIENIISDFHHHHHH
Excerpt: The MASP1 or MASP2 expression vectors were transfected into the HEK293 (ATCC No. CRL-1573) cell line using Lipofectamine LTX® Reagent (Thermo-Fischer), as described by the manufacturer. The mature form of the recombinant human MASP1 and M[…] were secreted into the culture medium. The MASP1 and M[…] were purified from the conditioned media by affinity chromatography on Ni-NTA Superflow resin (Qiagen) as described by the manufacturer. 2.3 Biochemical Human MASP2 Assay […] The enzymatic reaction was initiated by addition of 25 μl of 60 μM solution of the FRET substrate DABCYL-[…]; […] The microtiter plate was incubated for 60-120 min at the temperature of 32 C. The increase of fluorescence intensity was measured in appropriate fluorescence plate reader (e.g. TECAN Ultra) using excitation wavelength of 340 nm and emission wavelength of 490 nm. IC50 values were calculated from percentage of inhibition of human MASP2 activity as a function of test compound concentration.

Row | SMILES | IC50 (human MASP1) [nM] | IC50 (human MASP2) [nM]
1 | CC[C@H](C)[C@@H]1NC(=O)CNC(=O)CCOCCOCCNC(=O)[C@H](CC(=O)O)NC(=O)[C@@H]2CCCN2C(=O)[C@H]([C@@H](C)CC)NC(=O)[C@@H]2CSSC[C@H](NC1=O)C(=O)N[C@@H](CO)C(=O)N[C@@H](CCCNC(=N)N)C(=O)N[C@@H](CO)C(=O)N[C@@H](CC(C)C)C(=O)N1CCC[C@H]1C(=O)N1CCC[C@H]1C(=O)N[C@@H]([C@@H](C)CC)C(=O)N2 [Example 24] (cyclo(CIPD[PEG2]GICSRSLPPI); disulfide 1-8) | 110 | 210
2 | CC[C@@H]1NC(=O)CCCCCNC(=O)[C@H](CC(=O)O)NC(=O)[C@@H]2CCCN2C(=O)[C@H]([C@@H](C)CC)NC(=O)[C@@H]2CSSC[C@H](NC(=O)[C@H]([C@@H](C)CC)NC1=O)C(=O)N[C@@H](CO)C(=O)N[C@@H](CCCNC(=N)N)C(=O)N[C@@H](CO)C(=O)N[C@@H](CC(C)(C)C)C(=O)N1CCC[C@H]1C(=O)N1CCC[C@H]1C(=O)N[C@@H]([C@@H](C)CC)C(=O)N2C [Example 33] (cyclo([Abu]ICSRS[tBuAla]PPI[NMeC]IPD[Ahx]); disulfide 3-11) | 28 | 62
3 | CC[C@H](C)[C@@H]1NC(=O)[C@H](CCN)NC(=O)[C@H](CN)NC(=O)[C@H]([C@@H](C)CC)NC(=O)[C@H]2NC(=O)[C@H]([C@@H](C)CC)NC(=O)[C@@H]3CCCN3C(=O)[C@@H]3CCCN3C(=O)[C@H](CC(C)(C)C)NC(=O)[C@H](CO)NC(=O)[C@H](CCCNC(=N)N)NC(=O)[C@H](CO)NC(=O)[C@H](CSSC2(C)C)NC1=O [Example 73] (cyclo(CSRS[tBuAla]PPI[Pen]I[Dap][Dab]I); disulfide 1-9) | 42 | 430
4 | CC[C@H](C)[C@@H]1NC(=O)[C@H](C)NC(=O)CCC(=O)NCCCOCCOCCOCCCNC(=O)[C@H](CC(=O)O)NC(=O)[C@@H]2CCCN2C(=O)[C@H]([C@@H](C)CC)NC(=O)[C@H]2NC(=O)[C@H]([C@@H](C)CC)NC(=O)[C@@H]3CCCN3C(=O)[C@@H]3CCCN3C(=O)[C@H](CC(C)(C)C)NC(=O)[C@H](CO)NC(=O)[C@H](CCCNC(=N)N)NC(=O)[C@H](CO)NC(=O)[C@H](CSSC2(C)C)NC1=O [Example 63] (AICSRS[tBuAla]PPI[Pen]IPD; disulfide 3-11; linker N-C via X6) | 28 | 170
5 | CC[C@H](C)[C@@H]1NC(=O)CNC(=O)[C@H](CO)NC(=O)CNC(=O)[C@H](CO)NC(=O)[C@H](CC(=O)O)NC(=O)[C@@H]2CCCN2C(=O)[C@H]([C@@H](C)CC)NC(=O)[C@@H]2CSSC[C@H](NC1=O)C(=O)N[C@@H](CO)C(=O)N[C@@H](CCCNC(=N)N)C(=O)N[C@@H](CO)C(=O)N[C@@H](CC(C)C)C(=O)N1CCC[C@H]1C(=O)N1CCC[C@H]1C(=O)N[C@@H]([C@@H](C)CC)C(=O)N2 [Example 21] (cyclo(CIPDSGSGICSRSLPPI); disulfide 1-10) | 170 | 120

The next compounds have a lower IC50 (human MASP1) than those just listed; values first:

Row | IC50 (human MASP1) [nM] | IC50 (human MASP2) [nM] | SMILES
6 | 18 | 230 | CC[C@H](C)[C@@H]1NC(=O)[C@H](C)NC(=O)CNC(=O)[C@@H](N)Cn2cc(nn2)C[C@@H](C(N)=O)NC(=O)[C@@H]2CCCN2C(=O)[C@H]([C@@H](C)CC)NC(=O)[C@@H]2CSSC[C@H](NC1=O)C(=O)N[C@@H](CO)C(=O)N[C@@H](CCCNC(=N)N)C(=O)N[C@@H](CO)C(=O)N[C@@H](CC(C)(C)C)C(=O)N1CCC[C@H]1C(=O)N1CCC[C@H]1C(=O)N[C@@H]([C@@H](C)CC)C(=O)N2 [Example 81] (H-[Dap(N3)]GAICSRS[tBuAla]PPICIP[Pra]-NH2; triazole 1-16; disulfide 5-13)
7 | 16 | 130 | CC[C@H](C)[C@@H]1NC(=O)[C@H](C)NC(=O)CNC(=O)[C@H](C)NC(=O)[C@H](CC(=O)O)NC(=O)[C@@H]2CCCN2C(=O)[C@H]([C@@H](C)CC)NC(=O)[C@@H]2CSSC[C@H](NC1=O)C(=O)N[C@@H](CO)C(=O)N[C@@H](CCCNC(=N)N)C(=O)N[C@@H](CO)C(=O)N[C@@H](CC(C)(C)C)C(=O)N1CCC[C@H]1C(=O)N1CCC[C@H]1C(=O)N[C@@H]([C@@H](C)CC)C(=O)N2C [Example 31] (cyclo(AGAICSRS[tBuAla]PPI[NMeC]IPD); disulfide 5-13)
8 | 16 | 65 | CC[C@H](C)[C@@H]1NC(=O)CNC(=O)CCCCCNC(=O)[C@H](CC(=O)O)NC(=O)[C@@H]2CCCN2C(=O)[C@H]([C@@H](C)CC)NC(=O)[C@@H]2CSSC[C@H](NC1=O)C(=O)N[C@@H](CO)C(=O)N[C@@H](CCCNC(=N)N)C(=O)N[C@@H](CO)C(=O)N[C@@H](CC(C)(C)C)C(=O)N1CCC[C@H]1C(=O)N1CCC[C@H]1C(=O)N[C@@H]([C@@H](C)CC)C(=O)N2C [Example 30] (cyclo([Ahx]GICSRS[tBuAla]PPI[NMeC]IPD); disulfide 4-12)
9 | 15 | 87 | CC[C@H](C)[C@@H]1NC(=O)[C@@H](C)NC(=O)CNC(=O)CCCCCNC(=O)CC[C@@H](C(N)=O)NC(=O)[C@@H]2CCCN2C(=O)[C@H]([C@@H](C)CC)NC(=O)[C@H]2NC(=O)[C@H]([C@@H](C)CC)NC(=O)[C@@H]3C[C@@H]4CCCC[C@@H]4N3C(=O)[C@@H]3CCCN3C(=O)[C@H](CC(C)C)NC(=O)[C@H](CO)NC(=O)[C@H](CCCNC(=N)N)NC(=O)[C@H](CO)NC(=O)[C@H](CSSC2(C)C)NC1=O [Example 84] ([Ahx]G[dA]ICSRSLP[Oic]I[Pen]IPE-NH2; disulfide 5-13; lactam N-16)
10 | 13 | 200 | CC[C@H](C)[C@@H]1NC(=O)CNC(=O)CNC(=O)[C@H](C)NC(=O)C[C@@H](C(N)=O)NC(=O)[C@@H]2CCCN2C(=O)[C@H]([C@@H](C)CC)NC(=O)[C@H]2NC(=O)[C@H]([C@@H](C)CC)NC(=O)[C@@H]3C[C@@H]4CCCC[C@@H]4N3C(=O)[C@@H]3CCCN3C(=O)[C@H](CC(C)C)NC(=O)[C@H](CO)NC(=O)[C@H](CCCNC(=N)N)NC(=O)[C@H](CO)NC(=O)[C@H](CSSC2(C)C)NC1=O [Example 42] (AGGICSRSLP[Oic]I[Pen]IPD-NH2; disulfide 5-13; lactam N-16)
11 | 11 | 210 | CC[C@H](C)[C@@H]1NC(=O)[C@H](C)NC(=O)CN(C)C(=O)CCCCCNC(=O)CC[C@@H](C(N)=O)NC(=O)[C@@H]2CCCN2C(=O)[C@H]([C@@H](C)CC)NC(=O)[C@H]2NC(=O)[C@H]([C@@H](C)CC)NC(=O)[C@@H]3C[C@@H]4CCCC[C@@H]4N3C(=O)[C@@H]3CCCN3C(=O)[C@H](CC(C)C)NC(=O)[C@H](CO)NC(=O)[C@H](CCCNC(=N)N)NC(=O)[C@H](CO)NC(=O)[C@H](CSSC2(C)C)NC1=O [Example 77] ([Ahx][Sar]AICSRSLP[Oic]I[Pen]IPE-NH2; disulfide 5-13; lactam N-16)
12 | 9.8 | 110 | CC[C@H](C)[C@@H]1NC(=O)CNC(=O)[C@@H](N)CCC(=O)NCCCC[C@@H](C(N)=O)NC(=O)[C@@H]2CCCN2C(=O)[C@H]([C@@H](C)CC)NC(=O)[C@H]2NC(=O)[C@H]([C@@H](C)CC)NC(=O)[C@@H]3C[C@@H]4CCCC[C@@H]4N3C(=O)[C@@H]3CCCN3C(=O)[C@H](CC(C)C)NC(=O)[C@H](CO)NC(=O)[C@H](CCCNC(=N)N)NC(=O)[C@H](CO)NC(=O)[C@H](CSSC2(C)C)NC1=O [Example 90] (H-EGICSRSLP[Oic]I[Pen]IPK-NH2; lactam 1-15; disulfide 4-12)
